17 compounds from patent US9321776B2, “Isochromene derivatives as phoshoinositide 3-kinases inhibitors” (CHIESI FARMACEUTICI S.p.A., priority 2013, dated 2016) can be followed below.

Holding throughout (assay): PI3K enzyme inhibitory activity in the cell free assay (ADP-Glo Kinase Assay)
What all share (type): biochemical

For one experiment, the target named is T1, PI3Kβ (Homo sapiens, UniProt P42338).
T1 construct: purchased Millipore Ltd (Billerica, Mass.)
To be noted: human recombinant PI3Kβ, ATP 100 μM; read-out: PI3K beta inhibition.

The target in the next experiment is T2, PI3Kα (Homo sapiens, UniProt P42336).
T2 construct: purchased Millipore Ltd (Billerica, Mass.)
To be noted: human recombinant PI3Kα, ATP 50 μM; read-out: PI3K alpha inhibition.

The target in the next experiment is T3, PI3Kγ (Homo sapiens, UniProt P48736).
T3 construct: purchased Millipore Ltd (Billerica, Mass.)
The conditions noted are these: human recombinant PI3Kγ, ATP 30 μM; read-out: PI3K gamma inhibition.

Another experiment has as its target T4, PI3Kδ (Homo sapiens, UniProt O00329).
T4 construct: purchased Millipore Ltd (Billerica, Mass.)
T4 sequence (O00329 1-1044): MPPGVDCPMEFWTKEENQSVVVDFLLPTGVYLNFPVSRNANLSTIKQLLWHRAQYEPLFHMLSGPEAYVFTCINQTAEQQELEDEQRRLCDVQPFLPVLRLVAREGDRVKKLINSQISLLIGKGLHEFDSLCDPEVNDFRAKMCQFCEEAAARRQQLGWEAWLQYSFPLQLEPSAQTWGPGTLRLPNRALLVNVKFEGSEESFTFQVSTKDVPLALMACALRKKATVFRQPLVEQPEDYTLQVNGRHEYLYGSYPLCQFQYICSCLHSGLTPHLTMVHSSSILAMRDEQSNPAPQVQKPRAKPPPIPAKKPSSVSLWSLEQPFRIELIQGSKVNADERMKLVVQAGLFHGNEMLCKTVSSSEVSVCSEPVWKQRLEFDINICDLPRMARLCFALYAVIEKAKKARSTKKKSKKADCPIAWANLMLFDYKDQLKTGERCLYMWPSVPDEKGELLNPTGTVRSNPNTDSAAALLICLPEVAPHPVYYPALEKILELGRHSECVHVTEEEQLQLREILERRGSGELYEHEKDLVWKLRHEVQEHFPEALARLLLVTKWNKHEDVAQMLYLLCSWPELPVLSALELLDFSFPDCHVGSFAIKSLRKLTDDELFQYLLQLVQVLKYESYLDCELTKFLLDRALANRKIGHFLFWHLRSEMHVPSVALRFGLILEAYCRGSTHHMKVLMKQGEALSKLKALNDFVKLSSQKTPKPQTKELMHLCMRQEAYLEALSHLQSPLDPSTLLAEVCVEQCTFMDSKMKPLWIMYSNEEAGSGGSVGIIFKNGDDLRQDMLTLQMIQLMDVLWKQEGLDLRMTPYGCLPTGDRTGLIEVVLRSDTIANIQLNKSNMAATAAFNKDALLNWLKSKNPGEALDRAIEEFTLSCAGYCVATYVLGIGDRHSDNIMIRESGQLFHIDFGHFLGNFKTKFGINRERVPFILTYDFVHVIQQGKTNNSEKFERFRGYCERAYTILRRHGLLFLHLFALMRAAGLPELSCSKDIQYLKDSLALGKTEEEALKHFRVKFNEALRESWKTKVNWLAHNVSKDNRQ
The conditions noted are these: human recombinant PI3Kδ, ATP 80 μM; read-out: PI3K delta inhibition.

Structures can show the parent of a compound that is named as a salt. Where only a bound is given, the exact number is not on record here.

T1 sequence (P42338 whole entry): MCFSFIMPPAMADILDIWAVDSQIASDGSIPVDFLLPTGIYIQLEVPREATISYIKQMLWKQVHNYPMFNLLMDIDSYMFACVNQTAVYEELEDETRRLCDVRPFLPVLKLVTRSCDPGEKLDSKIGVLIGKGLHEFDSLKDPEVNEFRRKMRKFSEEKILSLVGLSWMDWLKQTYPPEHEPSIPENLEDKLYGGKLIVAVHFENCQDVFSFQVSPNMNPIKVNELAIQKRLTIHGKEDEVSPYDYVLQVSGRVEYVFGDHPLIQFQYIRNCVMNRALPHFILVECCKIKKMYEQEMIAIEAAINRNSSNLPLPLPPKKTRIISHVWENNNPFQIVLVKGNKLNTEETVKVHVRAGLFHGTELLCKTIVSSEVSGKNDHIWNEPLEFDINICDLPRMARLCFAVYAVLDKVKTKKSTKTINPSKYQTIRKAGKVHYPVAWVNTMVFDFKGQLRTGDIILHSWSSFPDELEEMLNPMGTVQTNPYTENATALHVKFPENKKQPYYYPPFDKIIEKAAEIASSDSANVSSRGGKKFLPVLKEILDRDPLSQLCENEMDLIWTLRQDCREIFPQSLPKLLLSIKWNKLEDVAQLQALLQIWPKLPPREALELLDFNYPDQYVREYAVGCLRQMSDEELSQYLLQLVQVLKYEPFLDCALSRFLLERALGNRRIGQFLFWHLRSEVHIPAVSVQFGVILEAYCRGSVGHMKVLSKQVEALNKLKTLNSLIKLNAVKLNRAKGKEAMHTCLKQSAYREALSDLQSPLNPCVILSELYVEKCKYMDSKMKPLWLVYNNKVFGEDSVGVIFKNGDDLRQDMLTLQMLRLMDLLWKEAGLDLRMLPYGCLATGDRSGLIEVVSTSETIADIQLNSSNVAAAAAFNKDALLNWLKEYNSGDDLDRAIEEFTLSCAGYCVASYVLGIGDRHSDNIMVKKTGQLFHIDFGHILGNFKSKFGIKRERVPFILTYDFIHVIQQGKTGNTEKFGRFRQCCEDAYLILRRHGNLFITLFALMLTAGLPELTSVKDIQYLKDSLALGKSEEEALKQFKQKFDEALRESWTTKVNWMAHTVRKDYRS
T3 sequence (P48736 whole entry): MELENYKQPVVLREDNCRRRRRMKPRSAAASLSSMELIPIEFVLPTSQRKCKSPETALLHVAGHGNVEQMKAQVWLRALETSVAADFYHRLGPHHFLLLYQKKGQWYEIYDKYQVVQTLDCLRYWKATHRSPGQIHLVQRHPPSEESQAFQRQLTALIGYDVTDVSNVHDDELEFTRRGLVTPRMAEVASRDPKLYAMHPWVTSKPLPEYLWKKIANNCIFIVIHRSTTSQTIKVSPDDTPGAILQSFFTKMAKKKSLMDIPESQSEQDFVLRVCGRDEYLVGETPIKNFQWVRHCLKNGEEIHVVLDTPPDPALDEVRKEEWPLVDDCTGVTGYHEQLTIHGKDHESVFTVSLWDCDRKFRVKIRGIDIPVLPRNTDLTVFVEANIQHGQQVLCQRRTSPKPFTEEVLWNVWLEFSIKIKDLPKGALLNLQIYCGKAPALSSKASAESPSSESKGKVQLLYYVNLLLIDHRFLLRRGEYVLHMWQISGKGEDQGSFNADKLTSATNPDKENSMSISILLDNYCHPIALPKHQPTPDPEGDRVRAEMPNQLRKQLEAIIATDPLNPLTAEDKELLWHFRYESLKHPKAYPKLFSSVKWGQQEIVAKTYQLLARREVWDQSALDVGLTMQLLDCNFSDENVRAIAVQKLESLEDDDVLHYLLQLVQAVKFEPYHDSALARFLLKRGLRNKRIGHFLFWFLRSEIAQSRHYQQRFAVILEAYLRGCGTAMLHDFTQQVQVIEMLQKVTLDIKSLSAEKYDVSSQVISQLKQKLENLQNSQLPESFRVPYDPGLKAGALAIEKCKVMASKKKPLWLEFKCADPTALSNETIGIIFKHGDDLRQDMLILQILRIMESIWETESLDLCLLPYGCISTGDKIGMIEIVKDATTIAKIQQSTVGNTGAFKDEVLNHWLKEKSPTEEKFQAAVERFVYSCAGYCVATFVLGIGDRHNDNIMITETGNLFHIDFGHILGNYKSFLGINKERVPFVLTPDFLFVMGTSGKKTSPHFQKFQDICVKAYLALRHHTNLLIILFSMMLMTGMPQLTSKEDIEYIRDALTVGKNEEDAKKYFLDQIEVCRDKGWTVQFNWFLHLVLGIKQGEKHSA
T2 sequence (P42336 whole entry): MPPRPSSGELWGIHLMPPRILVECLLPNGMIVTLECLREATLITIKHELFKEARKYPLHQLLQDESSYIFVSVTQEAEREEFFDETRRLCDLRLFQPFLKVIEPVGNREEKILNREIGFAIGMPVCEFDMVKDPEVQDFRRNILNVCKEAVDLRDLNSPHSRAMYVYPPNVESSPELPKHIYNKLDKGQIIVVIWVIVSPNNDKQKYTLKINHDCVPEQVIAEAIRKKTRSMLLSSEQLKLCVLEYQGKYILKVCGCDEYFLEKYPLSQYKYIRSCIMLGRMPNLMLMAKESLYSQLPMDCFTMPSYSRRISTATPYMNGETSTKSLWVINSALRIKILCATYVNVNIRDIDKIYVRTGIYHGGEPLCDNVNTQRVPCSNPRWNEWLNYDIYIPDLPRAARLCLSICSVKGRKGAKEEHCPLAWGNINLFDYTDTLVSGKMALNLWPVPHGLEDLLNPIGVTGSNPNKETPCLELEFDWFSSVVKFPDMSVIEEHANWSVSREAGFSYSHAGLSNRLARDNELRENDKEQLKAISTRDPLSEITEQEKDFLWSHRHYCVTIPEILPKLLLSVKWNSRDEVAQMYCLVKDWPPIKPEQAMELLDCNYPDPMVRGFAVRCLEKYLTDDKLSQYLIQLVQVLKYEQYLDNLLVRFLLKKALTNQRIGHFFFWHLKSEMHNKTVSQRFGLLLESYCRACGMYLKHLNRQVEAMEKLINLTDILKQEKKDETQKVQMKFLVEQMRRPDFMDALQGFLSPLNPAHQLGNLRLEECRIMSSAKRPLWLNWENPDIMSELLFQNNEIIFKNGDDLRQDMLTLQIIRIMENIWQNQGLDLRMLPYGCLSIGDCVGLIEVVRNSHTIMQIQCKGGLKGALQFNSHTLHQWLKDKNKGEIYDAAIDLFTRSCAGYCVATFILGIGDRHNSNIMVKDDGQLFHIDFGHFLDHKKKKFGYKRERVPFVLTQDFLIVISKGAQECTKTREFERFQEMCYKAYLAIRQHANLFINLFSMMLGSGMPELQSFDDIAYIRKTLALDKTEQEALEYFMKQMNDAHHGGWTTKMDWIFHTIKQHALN

Consider `CC(c1oc(=O)c2ccccc2c1-c1ccc(CN2CCOCC2)s1)n1nc(-c2cc(O)cc(F)c2)c2c(N)ncnc21` (single isomer, unassigned) [Example 49a, 3-(1-(4-amino-3-(3-fluoro-5-hydroxyphenyl)-1H-pyrazolo[3,4-d]pyrimidin-1-yl)ethyl)-4-(5-(morpholinomethyl)thiophen-2-yl)-1H-isochromen-1-one hydrochloride], for which the IC50 on PI3Kβ is 10 to 1000 nM; on PI3Kα, 10 to 1000 nM; on PI3Kγ, 10 to 1000 nM; at PI3Kδ, under 10 nM.
Regarding `CC(c1oc(=O)c2ccccc2c1-c1ccc(CN2CCCCC2)s1)n1nc(-c2cc(O)cc(F)c2)c2c(N)ncnc21` (single isomer, unassigned) [Example 68b, 3-(1-(4-amino-3-(3-fluoro-5-hydroxyphenyl)-1H-pyrazolo[3,4-d]pyrimidin-1-yl)ethyl)-4-(5-(piperidin-1-ylmethyl)thiophen-2-yl)-1H-isochromen-1-one hydrochloride single enantiomers], the IC50 on PI3Kβ was 10 to 1000 nM; on PI3Kα, 10 to 1000 nM; on PI3Kγ, 10 to 1000 nM; at PI3Kδ, under 10 nM.
Consider `CC(c1oc(=O)c2ccccc2c1C1=CCCN(Cc2ccccc2)C1)n1nc(-c2cc(O)cc(F)c2)c2c(N)ncnc21` (single isomer, unassigned) [Example 169b, 3-(1-(4-amino-3-(3-fluoro-5-hydroxyphenyl)-1H-pyrazolo[3,4-d]pyrimidin-1-yl)ethyl)-4-(1-benzyl-1,2,5,6-tetrahydropyridin-3-yl)-1H-isochromen-1-one hydrochloride single enantiomers], for which the IC50 on PI3Kβ was 10 to 1000 nM; on PI3Kα, over 1000 nM.
For the compound `O=c1oc(CNc2ncnc3[nH]cnc23)c(-c2ccccc2)c2ccccc12` [Example 29, 3-((9H-Purin-6-ylamino)methyl)-4-phenyl-1H-isochromen-1-one], the results for the IC50 at PI3Kα and at PI3Kγ were over 1000 nM and 10 to 1000 nM, respectively.
As for `Cc1cccc(-c2c(C(C)n3nc(-c4cn[nH]c4)c4c(N)ncnc43)oc(=O)c3ccccc23)c1` (stereo not drawn) [Example 42, 3-(1-(4-Amino-3-(1H-pyrazol-4-yl)-1H-pyrazolo[3,4-d]pyrimidin-1-yl)ethyl)-4-m-tolyl-1H-isochromen-1-one], the results for the IC50 at PI3Kα, on PI3Kγ and at PI3Kδ were over 1000 nM, 10 to 1000 nM and under 10 nM, respectively.
In the same order, the values of `CC(c1oc(=O)c2ccccc2c1-c1ccccc1)n1nc(-c2cncc(NS(=O)(=O)c3ccc(F)cc3)c2)c2c(N)ncnc21` (stereo not drawn) [Example 87, N-(5-(4-amino-1-(1-(1-oxo-4-phenyl-1H-isochromen-3-yl)ethyl)-1H-pyrazolo[3,4-d]pyrimidin-3-yl)pyridin-3-yl)-4-fluorobenzenesulfonamide] are 10 to 1000 nM, 10 to 1000 nM and 10 to 1000 nM.
For `Cc1nn(C(C)c2oc(=O)c3ccccc3c2-c2ccccc2)c2ncnc(N)c12` (stereo not drawn) [Example 105, 3-(1-(4-amino-3-methyl-1H-pyrazolo[3,4-d]pyrimidin-1-yl)ethyl)-4-phenyl-1H-isochromen-1-one], the IC50 is 10 to 1000 nM on PI3Kβ, 10 to 1000 nM at PI3Kγ and under 10 nM on PI3Kδ.
On to `CC(c1oc(=O)c2ccccc2c1-c1ccccc1)n1nc(-c2cc[nH]n2)c2c(N)ncnc21` (stereo not drawn) [Example 111, 3-(1-(4-amino-3-(1H-pyrazol-3-yl)-1H-pyrazolo[3,4-d]pyrimidin-1-yl)ethyl)-4-phenyl-1H-isochromen-1-one], for which the IC50 on PI3Kα was over 1000 nM; on PI3Kγ, 10 to 1000 nM; at PI3Kδ, 10 to 1000 nM.
In the case of `CC(c1oc(=O)c2ccccc2c1-c1ccccc1)n1nc(-c2cccc3[nH]ncc23)c2c(N)ncnc21` (stereo not drawn) [Example 112, 3-(1-(4-amino-3-(1H-indazol-4-yl)-1H-pyrazolo[3,4-d]pyrimidin-1-yl)ethyl)-4-phenyl-1H-isochromen-1-one], the IC50 on PI3Kβ is over 1000 nM; at PI3Kγ it was 10 to 1000 nM; on PI3Kδ, 10 to 1000 nM.
In the case of `CC(c1oc(=O)c2ccccc2c1-c1ccc(CN2CCNCC2)cc1)n1nc(-c2cc(O)cc(F)c2)c2c(N)ncnc21` (stereo not drawn) [Example 125, 3-(1-(4-amino-3-(3-fluoro-5-hydroxyphenyl)-1H-pyrazolo[3,4-d]pyrimidin-1-yl)ethyl)-4-(4-(piperazin-1-ylmethyl)phenyl)-1H-isochromen-1-one dihydrochloride], the IC50 at PI3Kβ was over 1000 nM; on PI3Kγ, over 1000 nM; at PI3Kδ, 10 to 1000 nM.
As for `CC(c1oc(=O)c2ccccc2c1C1=CCN(Cc2ccccc2)CC1)n1nc(-c2cc(O)cc(F)c2)c2c(N)ncnc21` (stereo not drawn) [Example 131, 3-(1-(4-amino-3-(3-fluoro-5-hydroxyphenyl)-1H-pyrazolo[3,4-d]pyrimidin-1-yl)ethyl)-4-(1-benzyl-1,2,3,6-tetrahydropyridin-4-yl)-1H-isochromen-1-one hydrochloride], the IC50 at PI3Kβ was over 1000 nM; on PI3Kγ it was over 1000 nM; on PI3Kδ, 10 to 1000 nM.
For the compound `CC(c1oc(=O)c2ccccc2c1-c1cccc(CN2CCCCC2)c1)n1nc(-c2cc(O)cc(F)c2)c2c(N)ncnc21` (stereo not drawn) [Example 143, 3-(1-(4-amino-3-(3-fluoro-5-hydroxyphenyl)-1H-pyrazolo[3,4-d]pyrimidin-1-yl)ethyl)-4-(3-(piperidin-1-ylmethyl)phenyl)-1H-isochromen-1-one, Formate], the IC50 on PI3Kβ was 10 to 1000 nM; on PI3Kγ it was over 1000 nM; on PI3Kδ it was 10 to 1000 nM.
As to `CC(c1oc(=O)c2ccccc2c1C#CCN(C)C)n1nc(-c2cc(O)cc(F)c2)c2c(N)ncnc21` (stereo not drawn) [Example 158, 3-(1-(4-amino-3-(3-fluoro-5-hydroxyphenyl)-1H-pyrazolo[3,4-d]pyrimidin-1-yl)ethyl)-4-(3-(dimethylamino)prop-1-yn-1-yl)-1H-isochromen-1-one hydrochloride], the IC50 on PI3Kβ, on PI3Kα and on PI3Kδ was 10 to 1000 nM each time.
Regarding `Cc1c(O)cncc1-c1nn(C(C)c2oc(=O)c3ccccc3c2-c2ccccc2)c2ncnc(N)c12` (stereo not drawn) [Example 159, 3-(1-(4-amino-3-(5-hydroxy-4-methylpyridin-3-yl)-1H-pyrazolo[3,4-d]pyrimidin-1-yl)ethyl)-4-phenyl-1H-isochromen-1-one], the IC50 on PI3Kβ was over 1000 nM; at PI3Kγ, 10 to 1000 nM; on PI3Kδ, 10 to 1000 nM.
On to `Cc1ncc(O)cc1-c1nn(C(C)c2oc(=O)c3ccccc3c2-c2ccccc2)c2ncnc(N)c12` (stereo not drawn) [Example 160, 3-(1-(4-amino-3-(5-hydroxy-2-methylpyridin-3-yl)-1H-pyrazolo[3,4-d]pyrimidin-1-yl)ethyl)-4-phenyl-1H-isochromen-1-one], for which the IC50 on PI3Kβ is 10 to 1000 nM; at PI3Kγ, 10 to 1000 nM; at PI3Kδ, under 10 nM.
As to `Cc1ccc2c(-c3ccccc3)c(C(C)n3nc(-c4cc(O)cc(F)c4)c4c(N)ncnc43)oc(=O)c2c1` (stereo not drawn) [Example 162, 3-(1-(4-amino-3-(3-fluoro-5-hydroxyphenyl)-1H-pyrazolo[3,4-d]pyrimidin-1-yl)ethyl)-7-methyl-4-phenyl-1H-isochromen-1-one], the values for the IC50 at PI3Kα, on PI3Kγ and on PI3Kδ were over 1000 nM, 10 to 1000 nM and 10 to 1000 nM, respectively.
In the case of `Nc1ncnc2c1c(I)nn2Cc1oc(=O)c2ccccc2c1-c1ccccc1` [Int D1, 3-((4-Amino-3-iodo-1H-pyrazolo[3,4-d]pyrimidin-1-yl)methyl)-4-phenyl-1H-isochromen-1-one], the IC50 on PI3Kβ is over 1000 nM; at PI3Kγ, 10 to 1000 nM; on PI3Kδ it was 10 to 1000 nM.
